Measurements: ChEMBL document CHEMBL2390902, “Discovery of 1-(1,3,5-triazin-2-yl)piperidine-4-carboxamides as inhibitors of soluble epoxide hydrolase” (Bioorg Med Chem Lett, 2013)

Experiments:
[1] = molecular target: T1, Bifunctional epoxide hydrolase 2 (Homo sapiens, UniProt P34913)
T1 sequence (P34913 whole entry): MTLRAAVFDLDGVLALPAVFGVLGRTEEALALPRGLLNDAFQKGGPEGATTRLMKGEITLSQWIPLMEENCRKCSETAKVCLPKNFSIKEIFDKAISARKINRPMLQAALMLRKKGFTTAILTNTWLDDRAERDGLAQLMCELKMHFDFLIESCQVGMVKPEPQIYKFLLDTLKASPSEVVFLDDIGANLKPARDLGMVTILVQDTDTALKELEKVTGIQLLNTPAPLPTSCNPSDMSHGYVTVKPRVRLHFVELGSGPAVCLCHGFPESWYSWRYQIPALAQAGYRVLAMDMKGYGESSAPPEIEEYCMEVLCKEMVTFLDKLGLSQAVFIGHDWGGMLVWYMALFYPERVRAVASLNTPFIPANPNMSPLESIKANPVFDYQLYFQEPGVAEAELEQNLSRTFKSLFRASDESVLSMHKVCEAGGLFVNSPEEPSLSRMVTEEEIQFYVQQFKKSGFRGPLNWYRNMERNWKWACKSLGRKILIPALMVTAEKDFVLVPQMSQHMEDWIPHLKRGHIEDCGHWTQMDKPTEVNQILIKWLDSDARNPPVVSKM
Description: Inhibition of human soluble epoxide hydrolase using PHOME as substrate assessed as formation of 6-methoxy-2-naphthaldehyde incubated for 10 mins prior to substrate addition measured with in 30 mins by fluorescence assay

Cytochrome P450 2C9 = Cytochrome P450 2C9 (Homo sapiens, UniProt P11712)
Description: Inhibition of CYP2C9 (unknown origin)

[2] = molecular target: T1, Bifunctional epoxide hydrolase 2; remark: listed apart in the source
Description: Inhibition of human soluble epoxide hydrolase overexpressed in HEK293F cells using EET as substrate assessed as formation of DHET incubated for 30 mins prior to substrate addition measured after 60 mins by ELISA

[3] = Plasma clearance in rat at 1 mg/kg, iv; assay type: ADME, organism-based; set-up: dose 1 mg/kg, route intravenous
[4] = Fraction unbound in rat plasma; assay type: ADME, cell-free

Chain of Cytochrome P450 2C9 (P11712 whole entry): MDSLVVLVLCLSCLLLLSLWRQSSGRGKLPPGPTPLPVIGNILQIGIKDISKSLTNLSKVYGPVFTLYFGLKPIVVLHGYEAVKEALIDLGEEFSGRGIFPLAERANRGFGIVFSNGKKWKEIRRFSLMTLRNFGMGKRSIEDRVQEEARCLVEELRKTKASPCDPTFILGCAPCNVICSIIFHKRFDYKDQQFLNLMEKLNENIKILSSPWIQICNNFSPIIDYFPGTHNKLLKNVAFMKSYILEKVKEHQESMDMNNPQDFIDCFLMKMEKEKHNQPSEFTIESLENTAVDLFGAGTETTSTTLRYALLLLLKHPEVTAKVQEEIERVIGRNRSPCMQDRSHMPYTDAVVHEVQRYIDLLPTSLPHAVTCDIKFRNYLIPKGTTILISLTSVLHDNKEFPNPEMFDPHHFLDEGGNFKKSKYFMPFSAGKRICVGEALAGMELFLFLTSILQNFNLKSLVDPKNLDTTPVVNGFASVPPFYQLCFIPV

SMILES	IC50 [1]	IC50 (Cytochrome P450 2C9)	IC50 [2]	clearance [3]	fraction unbound [4]
CNc1cc(C)nc(N2CCC(C(=O)NCc3ccccc3C(F)(F)F)CC2)n1	160 nM	> 25000 nM			
CNc1nc(NC)nc(N2CCC(C(=O)NCc3ccccc3C(F)(F)F)CC2)n1	20 nM	25000 nM	100 nM	79 mL/min/kg	
CNc1nc(C)nc(N2CCC(C(=O)NCc3ccc(OC(F)(F)F)cc3)CC2)n1	400 nM	> 25000 nM			
CNc1nc(C)nc(N2CCC(C(=O)NCc3ccccc3C(F)(F)F)CC2)n1	3 nM	25000 nM	100 nM	51 mL/min/kg	
CNc1nc(C)nc(N2CCC(C(=O)NCc3ccccc3C)CC2)n1	200 nM	> 25000 nM			
CNc1cc(C)nc(N2CCC(C(=O)NCc3ccccc3C(F)(F)F)CC2)c1	1590 nM	> 25000 nM			
COCCNc1nc(C)nc(N2CCC(C(=O)NCc3ccccc3C(F)(F)F)CC2)n1	1 nM	1800 nM	1 nM	27 mL/min/kg	
CNc1nc(C)nc(N2CCC(C(=O)NCc3ccccc3OC(F)(F)F)CC2)n1	1 nM	> 25000 nM	3 nM	44 mL/min/kg	
CNc1cc(N2CCC(C(=O)NCc3ccccc3C(F)(F)F)CC2)cc(C)n1	126 nM	> 25000 nM			
CNc1nc(C)nc(N2CCC(C(=O)NCc3cccc(OC(F)(F)F)c3)CC2)n1	630 nM	> 25000 nM			
CNc1cc(N2CCC(C(=O)NCc3ccccc3C(F)(F)F)CC2)nc(C)n1	5 nM	1000 nM	80 nM	73 mL/min/kg	
CNc1nc(-c2ccccc2)nc(N2CCC(C(=O)NCc3ccccc3C(F)(F)F)CC2)n1	1 nM	1800 nM	63 nM	3 mL/min/kg	0.015
CCc1nc(NC)nc(N2CCC(C(=O)NCc3ccccc3C(F)(F)F)CC2)n1	4 nM	9600 nM	80 nM		
CNc1nc(C)nc(N2CCC(C(=O)NCc3ccccc3OC)CC2)n1	1600 nM	> 25000 nM			
CNc1cc(C)cc(N2CCC(C(=O)NCc3ccccc3C(F)(F)F)CC2)n1	10 nM	11000 nM	100 nM	61 mL/min/kg	
CNc1nc(C)nc(N2CCC(C(=O)NCc3ccc(OC)cc3C(F)(F)F)CC2)n1	1 nM	> 25000 nM	2 nM	7 mL/min/kg	
Cc1nc(N2CCOCC2)nc(N2CCC(C(=O)NCc3ccccc3C(F)(F)F)CC2)n1	1 nM	400 nM	3 nM		
CNc1nc(C)nc(N2CCC(C(=O)NCc3ccccc3C#N)CC2)n1	80 nM	> 25000 nM			
Cc1nc(NC(C)C)nc(N2CCC(C(=O)NCc3ccccc3C(F)(F)F)CC2)n1	1 nM	400 nM	10 nM		
CNc1nc(N2CCC(C(=O)NCc3ccccc3C(F)(F)F)CC2)nc(N2CCN(C)CC2)n1				46 mL/min/kg	
CNc1nc(C)nc(N2CCC(C(=O)NCc3ccc(F)cc3C(F)(F)F)CC2)n1	3 nM	> 25000 nM	50 nM		
CNc1nc(C)cc(N2CCC(C(=O)NCc3ccccc3C(F)(F)F)CC2)n1	40 nM	> 25000 nM			
CNc1nc(C2CCCCC2)nc(N2CCC(C(=O)NCc3ccccc3C(F)(F)F)CC2)n1	1 nM	63 nM			
CNc1nc(C)nc(N2CCC(C(=O)NCc3ccccc3)CC2)n1	200 nM	> 25000 nM			
CNc1cc(C)cc(N2CCC(C(=O)NCc3ccccc3C(F)(F)F)CC2)c1	32 nM	2000 nM			
CNc1nc(N(C)CCN(C)C)nc(N2CCC(C(=O)NCc3ccccc3C(F)(F)F)CC2)n1	80 nM	17000 nM		140 mL/min/kg	
